Laboratory results reported in US20110230481A2, “DERIVATIVES OF TETRABROMOBENZIMIDAZOLE, A PROCESS FOR THE PREPARATION THEREOF, A PHARMACEUTICAL COMPOSITION COMPRISING THE SAME, A METHOD OF USING THE SAME, A METHOD FOR MODULATING OR REGULATING SERINE/THREONINE KINASES, AND SERINE/THREONINE KINASES MODULATING AGENT” (SELVITA S.A., priority 2009, published 2011).

Legend:
Experiment in all cases: KINOMEscan Max
Type in all cases: binding
[1] = molecular target: T1, PAK1 (Homo sapiens, UniProt Q13153)
T1 construct: DNA tag (qPCR read-out)
Procedure, shortened: (§1)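 Quantitative PCR of the DNA tag reports competition between test compound and an immobilized, active-site directed ligand for binding to each DNA-tagged kinase.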

[2] = molecular target: T2, ROCK2 (Homo sapiens, UniProt O75116)
T2 construct: purchased Ambit (KINOMEscan Max service)
Procedure, shortened: as §1

[3] = molecular target: MST3 (Homo sapiens, UniProt Q9Y6E0); settings: 1 μM
Sequence of MST3 (Q9Y6E0 whole entry): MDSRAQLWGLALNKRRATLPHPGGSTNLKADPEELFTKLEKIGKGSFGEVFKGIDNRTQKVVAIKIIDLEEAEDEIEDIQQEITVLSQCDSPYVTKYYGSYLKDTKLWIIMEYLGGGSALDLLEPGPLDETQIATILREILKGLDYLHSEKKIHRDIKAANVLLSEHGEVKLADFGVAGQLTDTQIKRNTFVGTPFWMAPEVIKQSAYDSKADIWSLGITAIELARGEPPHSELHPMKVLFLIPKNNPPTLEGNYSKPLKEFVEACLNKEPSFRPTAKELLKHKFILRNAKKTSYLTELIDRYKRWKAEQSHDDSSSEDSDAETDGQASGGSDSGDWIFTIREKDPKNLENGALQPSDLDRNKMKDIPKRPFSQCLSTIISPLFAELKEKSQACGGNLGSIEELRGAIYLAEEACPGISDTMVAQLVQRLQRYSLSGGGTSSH
Procedure, shortened: as §1

[4] = molecular target: T3, KIT(V559D.V654A) (Homo sapiens, UniProt P10721, V559D/V654A)
T3 construct: purchased Ambit Kinomescan (contract panel)
Procedure, shortened: as §1

[5] = molecular target: BLK (Homo sapiens, UniProt P51451)
Procedure, shortened: as §1

[6] = molecular target: PRKR (Homo sapiens, UniProt P19525); settings: 1 μM
Procedure, shortened: as §1

[7] = molecular target: ABL1-phssophorylated (Homo sapiens, UniProt P00519)
Procedure, shortened: as §1

[8] = molecular target: T4, MET (Homo sapiens, UniProt P08581); settings: 1 μM
T4 construct: purchased Ambit Kinomescan (contract screening)
Procedure, shortened: as §1

[9] = molecular target: T5, EPHA8 (Homo sapiens, UniProt P29322)
T5 construct: purchased Ambit (KINOMEscan Max service)
Procedure, shortened: as §1

[10] = molecular target: T6, CAMKK2 (Homo sapiens, UniProt Q96RR4)
T6 construct: DNA tag (qPCR label); purchased Ambit Kinomescan (contract screening)
Procedure, shortened: as §1

[11] = molecular target: T7, PRKD1 (Homo sapiens, UniProt Q15139)
T7 construct: DNA tag (qPCR read-out)
Procedure, shortened: as §1

[12] = molecular target: T8, AMPK-alpha1 (Homo sapiens, UniProt Q13131)
T8 construct: DNA tag (qPCR label); purchased Ambit Kinomescan (contract screening)
Procedure, shortened: as §1

[13] = molecular target: CSNK1A1L (Homo sapiens, UniProt Q8N752)
Sequence of CSNK1A1L (Q8N752 whole entry): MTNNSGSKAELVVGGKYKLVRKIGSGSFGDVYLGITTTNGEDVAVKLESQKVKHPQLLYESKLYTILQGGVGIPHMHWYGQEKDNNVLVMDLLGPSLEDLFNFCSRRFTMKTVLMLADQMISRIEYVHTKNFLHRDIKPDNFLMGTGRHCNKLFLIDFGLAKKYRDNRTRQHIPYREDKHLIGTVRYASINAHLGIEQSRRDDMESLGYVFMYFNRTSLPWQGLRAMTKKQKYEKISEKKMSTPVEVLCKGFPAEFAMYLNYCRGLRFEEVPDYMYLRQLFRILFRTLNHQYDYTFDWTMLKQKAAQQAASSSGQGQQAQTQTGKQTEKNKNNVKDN
Procedure, shortened: as §1

[14] = molecular target: T9, SRPK2 (Homo sapiens, UniProt P78362)
T9 construct: DNA tag (qPCR read-out)
T9 sequence (P78362 whole entry): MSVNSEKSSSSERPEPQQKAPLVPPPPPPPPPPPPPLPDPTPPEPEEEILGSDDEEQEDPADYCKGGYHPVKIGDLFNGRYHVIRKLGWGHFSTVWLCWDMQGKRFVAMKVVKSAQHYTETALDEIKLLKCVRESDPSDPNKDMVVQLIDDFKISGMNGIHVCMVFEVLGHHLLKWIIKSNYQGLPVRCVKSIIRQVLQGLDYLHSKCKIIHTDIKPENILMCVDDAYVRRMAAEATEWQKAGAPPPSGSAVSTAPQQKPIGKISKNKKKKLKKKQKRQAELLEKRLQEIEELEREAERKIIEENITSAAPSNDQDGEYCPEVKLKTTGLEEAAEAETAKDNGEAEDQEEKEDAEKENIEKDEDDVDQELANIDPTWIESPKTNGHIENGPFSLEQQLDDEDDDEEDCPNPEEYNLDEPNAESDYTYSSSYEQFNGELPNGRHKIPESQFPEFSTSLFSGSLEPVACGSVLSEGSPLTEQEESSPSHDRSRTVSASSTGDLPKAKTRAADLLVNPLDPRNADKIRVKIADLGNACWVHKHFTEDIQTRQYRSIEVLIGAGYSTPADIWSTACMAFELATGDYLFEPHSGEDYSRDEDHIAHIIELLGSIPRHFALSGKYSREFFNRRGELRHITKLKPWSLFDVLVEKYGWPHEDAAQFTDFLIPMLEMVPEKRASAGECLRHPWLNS
Procedure, shortened: as §1

[15] = molecular target: T10, ANKK1 (Homo sapiens, UniProt Q8NFD2)
T10 construct: DNA tag (qPCR label); purchased Ambit Kinomescan (contract screening)
T10 sequence (Q8NFD2 whole entry): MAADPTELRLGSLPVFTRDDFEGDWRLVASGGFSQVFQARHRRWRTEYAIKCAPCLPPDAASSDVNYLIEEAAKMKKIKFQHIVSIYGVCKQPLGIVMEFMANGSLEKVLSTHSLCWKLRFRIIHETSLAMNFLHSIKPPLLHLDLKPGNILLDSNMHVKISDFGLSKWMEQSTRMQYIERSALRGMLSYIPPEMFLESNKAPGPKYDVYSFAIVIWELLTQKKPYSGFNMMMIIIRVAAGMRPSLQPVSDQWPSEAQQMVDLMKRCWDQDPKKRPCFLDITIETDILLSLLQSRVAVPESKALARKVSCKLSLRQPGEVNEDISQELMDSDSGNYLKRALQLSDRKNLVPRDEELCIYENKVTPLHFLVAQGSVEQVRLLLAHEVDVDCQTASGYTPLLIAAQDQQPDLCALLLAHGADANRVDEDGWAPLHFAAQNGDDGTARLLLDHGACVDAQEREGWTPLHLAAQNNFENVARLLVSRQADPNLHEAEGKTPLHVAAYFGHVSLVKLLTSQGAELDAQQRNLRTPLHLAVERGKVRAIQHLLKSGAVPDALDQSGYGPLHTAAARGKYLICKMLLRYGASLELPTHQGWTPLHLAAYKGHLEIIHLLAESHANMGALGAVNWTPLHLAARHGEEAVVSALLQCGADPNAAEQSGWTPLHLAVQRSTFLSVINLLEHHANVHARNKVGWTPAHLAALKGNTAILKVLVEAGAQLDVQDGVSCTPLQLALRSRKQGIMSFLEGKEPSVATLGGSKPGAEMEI
Procedure, shortened: as §1

[16] = molecular target: T11, CAMKK1 (Homo sapiens, UniProt Q8N5S9)
T11 construct: DNA tag (qPCR label); purchased Ambit Kinomescan (contract screening)
Procedure, shortened: as §1

[17] = molecular target: T12, EGFR(G719C) (Homo sapiens, UniProt P00533, G719C); settings: 1 μM
T12 construct: purchased Ambit (KINOMEscan Max panel service)
Procedure, shortened: as §1

[18] = molecular target: CASK (Homo sapiens, UniProt O14936)
Procedure, shortened: as §1

[19] = molecular target: T13, INSRR (Homo sapiens, UniProt P14616)
T13 construct: purchased Ambit Kinomescan (contract panel, KINOMEscan Max)
Procedure, shortened: as §1

[20] = molecular target: TESK1 (Homo sapiens, UniProt Q15569)
Procedure, shortened: as §1

[21] = molecular target: T14, RET(M918T) (Homo sapiens, UniProt P07949, M918T)
T14 construct: DNA tag (qPCR read-out)
Procedure, shortened: as §1

[22] = molecular target: T15, CDC2L2 (Homo sapiens, UniProt Q9UQ88)
T15 construct: purchased Ambit (KINOMEscan Max service)
Procedure, shortened: as §1

[23] = molecular target: T16, CSNK1G1 (Homo sapiens, UniProt Q9HCP0); settings: 1 μM
T16 construct: purchased Ambit (KINOMEscan Max panel service)
Procedure, shortened: as §1

[24] = molecular target: T17, PRKCI (Homo sapiens, UniProt P41743)
T17 construct: DNA tag (qPCR read-out)
Procedure, shortened: as §1

[25] = molecular target: T18, RSK4(Kin.Dom.2-C-terminal) (Homo sapiens, UniProt Q9UK32); settings: 1 μM
T18 construct: RSK4(Kin.Dom.2-C-terminal); DNA tag (qPCR read-out)
Procedure, shortened: as §1

[26] = molecular target: T19, AKT3 (Homo sapiens, UniProt Q9Y243)
T19 construct: purchased Ambit (KINOMEscan Max service)
Procedure, shortened: as §1

[27] = molecular target: T20, PRKX (Homo sapiens, UniProt P51817)
T20 construct: DNA tag (qPCR read-out)
T20 sequence (P51817 whole entry): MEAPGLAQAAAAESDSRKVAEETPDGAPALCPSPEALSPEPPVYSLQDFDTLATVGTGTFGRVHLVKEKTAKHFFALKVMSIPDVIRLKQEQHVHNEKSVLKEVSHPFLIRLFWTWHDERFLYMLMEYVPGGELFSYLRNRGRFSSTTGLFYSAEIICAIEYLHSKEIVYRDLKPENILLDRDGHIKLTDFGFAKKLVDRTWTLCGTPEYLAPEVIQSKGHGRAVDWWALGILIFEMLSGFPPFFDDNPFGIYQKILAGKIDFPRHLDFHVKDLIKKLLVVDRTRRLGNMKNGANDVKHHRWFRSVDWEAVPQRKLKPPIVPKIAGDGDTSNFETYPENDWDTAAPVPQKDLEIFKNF
Procedure, shortened: as §1

[28] = molecular target: ABL1(M351T)-phosphorylated (Homo sapiens, UniProt P00519, M351T)
Procedure, shortened: as §1

[29] = molecular target: T21, MET(Y1235D) (Homo sapiens, UniProt P08581, Y1235D); settings: 1 μM
T21 construct: purchased Ambit (KINOMEscan Max service)
T21 sequence (P08581 25-1390 Y1235D): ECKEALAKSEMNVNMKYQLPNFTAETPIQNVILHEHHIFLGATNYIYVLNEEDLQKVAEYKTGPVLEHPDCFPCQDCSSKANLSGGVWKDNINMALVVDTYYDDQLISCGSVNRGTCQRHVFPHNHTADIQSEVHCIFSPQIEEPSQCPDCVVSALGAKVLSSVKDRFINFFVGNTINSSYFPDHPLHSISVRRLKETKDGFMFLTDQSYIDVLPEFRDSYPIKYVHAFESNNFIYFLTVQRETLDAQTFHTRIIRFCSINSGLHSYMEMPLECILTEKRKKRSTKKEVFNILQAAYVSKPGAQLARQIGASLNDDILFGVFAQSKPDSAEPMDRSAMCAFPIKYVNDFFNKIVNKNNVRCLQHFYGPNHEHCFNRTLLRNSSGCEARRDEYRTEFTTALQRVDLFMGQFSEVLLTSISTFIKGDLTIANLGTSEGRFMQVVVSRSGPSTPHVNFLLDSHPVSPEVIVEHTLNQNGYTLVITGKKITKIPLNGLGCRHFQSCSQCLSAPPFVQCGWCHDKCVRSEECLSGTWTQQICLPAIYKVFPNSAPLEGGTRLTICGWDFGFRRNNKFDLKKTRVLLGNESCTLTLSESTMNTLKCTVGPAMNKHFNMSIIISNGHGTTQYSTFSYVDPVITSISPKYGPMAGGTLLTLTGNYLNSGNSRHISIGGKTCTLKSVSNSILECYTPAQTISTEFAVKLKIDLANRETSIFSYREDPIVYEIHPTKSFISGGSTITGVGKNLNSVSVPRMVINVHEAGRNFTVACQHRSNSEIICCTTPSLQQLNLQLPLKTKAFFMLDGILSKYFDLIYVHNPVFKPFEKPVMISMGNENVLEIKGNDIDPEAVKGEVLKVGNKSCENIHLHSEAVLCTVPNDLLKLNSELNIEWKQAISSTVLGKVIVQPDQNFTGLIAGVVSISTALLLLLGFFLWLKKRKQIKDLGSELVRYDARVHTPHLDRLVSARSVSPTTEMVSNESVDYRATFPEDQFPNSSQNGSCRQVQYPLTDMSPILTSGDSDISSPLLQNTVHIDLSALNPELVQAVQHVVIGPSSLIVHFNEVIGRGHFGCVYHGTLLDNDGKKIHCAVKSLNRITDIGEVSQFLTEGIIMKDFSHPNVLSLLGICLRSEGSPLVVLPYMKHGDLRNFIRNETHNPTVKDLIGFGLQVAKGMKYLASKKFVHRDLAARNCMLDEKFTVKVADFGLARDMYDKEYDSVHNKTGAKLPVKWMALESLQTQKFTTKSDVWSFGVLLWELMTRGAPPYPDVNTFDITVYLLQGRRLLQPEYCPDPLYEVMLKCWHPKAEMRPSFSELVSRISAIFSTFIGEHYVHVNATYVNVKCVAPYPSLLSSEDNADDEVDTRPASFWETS
Procedure, shortened: as §1

[30] = molecular target: T22, PAK4 (Homo sapiens, UniProt O96013)
T22 construct: purchased Ambit (KINOMEscan Max service)
T22 sequence (O96013 whole entry): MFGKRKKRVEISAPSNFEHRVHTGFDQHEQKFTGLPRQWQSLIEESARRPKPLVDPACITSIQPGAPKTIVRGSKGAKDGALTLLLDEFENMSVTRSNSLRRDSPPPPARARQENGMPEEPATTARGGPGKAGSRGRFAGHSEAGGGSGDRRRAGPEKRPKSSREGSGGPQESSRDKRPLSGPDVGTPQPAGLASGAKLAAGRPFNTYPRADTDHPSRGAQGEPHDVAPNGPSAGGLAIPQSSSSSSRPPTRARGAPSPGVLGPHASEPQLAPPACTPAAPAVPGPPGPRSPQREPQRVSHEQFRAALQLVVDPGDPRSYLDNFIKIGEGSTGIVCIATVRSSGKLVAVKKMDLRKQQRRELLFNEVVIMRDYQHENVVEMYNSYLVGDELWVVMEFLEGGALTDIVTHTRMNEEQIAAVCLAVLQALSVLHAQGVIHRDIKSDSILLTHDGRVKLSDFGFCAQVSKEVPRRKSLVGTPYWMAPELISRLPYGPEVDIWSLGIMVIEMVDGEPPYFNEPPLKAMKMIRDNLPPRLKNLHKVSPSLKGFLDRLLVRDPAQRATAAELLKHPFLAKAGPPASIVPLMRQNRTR
Procedure, shortened: as §1

[31] = molecular target: S6K1 (Homo sapiens, UniProt P23443)
Procedure, shortened: as §1

[32] = molecular target: T23, QSK (Homo sapiens, UniProt Q9Y2K2); settings: 1 μM
T23 construct: DNA tag (qPCR read-out)
Procedure, shortened: as §1

[33] = molecular target: PKMYT1 (Homo sapiens, UniProt Q99640); settings: 1 μM
Sequence of PKMYT1 (Q99640 whole entry): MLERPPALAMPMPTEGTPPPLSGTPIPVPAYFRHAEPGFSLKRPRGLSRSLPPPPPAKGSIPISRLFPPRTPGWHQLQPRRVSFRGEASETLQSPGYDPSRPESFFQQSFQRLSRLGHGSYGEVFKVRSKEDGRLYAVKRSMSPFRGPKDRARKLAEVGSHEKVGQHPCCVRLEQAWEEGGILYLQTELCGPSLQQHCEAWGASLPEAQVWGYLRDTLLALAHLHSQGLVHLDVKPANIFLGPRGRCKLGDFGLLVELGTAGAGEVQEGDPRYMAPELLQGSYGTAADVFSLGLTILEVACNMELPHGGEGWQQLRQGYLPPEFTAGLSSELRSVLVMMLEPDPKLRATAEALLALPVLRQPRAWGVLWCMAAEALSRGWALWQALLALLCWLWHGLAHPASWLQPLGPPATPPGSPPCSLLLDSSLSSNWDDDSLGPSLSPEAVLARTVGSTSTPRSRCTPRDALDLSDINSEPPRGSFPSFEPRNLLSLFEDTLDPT
Procedure, shortened: as §1

[34] = molecular target: p38-delta (Homo sapiens, UniProt O15264)
Procedure, shortened: as §1

**Q.** Which remaining binding at 1 µM [1] does the source give for NCCCNc1nc2c(Br)c(Br)c(Br)c(Br)c2[nH]1 [Compound 11, N-(3-aminopropyl)-4,5,6,7-tetrabromo-1H-benzo[d]imidazol-2-amine] here?
**A.** 91%

**Q.** What about the remaining binding at 1 µM [2] of the same compound?
**A.** 71%

**Q.** What about the “% binding” value [3] of the same compound?
**A.** 98%

**Q.** What about the remaining binding at 1 µM [4] of the same compound?
**A.** 100%

**Q.** What about the remaining binding at 1 µM [5] of the same compound?
**A.** 96%

**Q.** And the “% binding” value [6]?
**A.** 91%

**Q.** And the remaining binding at 1 µM [7]?
**A.** 94%

**Q.** What about the “% binding” value [8] of the same compound?
**A.** 97%

**Q.** And the remaining binding at 1 µM [9]?
**A.** 86%

**Q.** And the remaining binding at 1 µM [10]?
**A.** 100%

**Q.** And the remaining binding at 1 µM [11]?
**A.** 28%

**Q.** What about the remaining binding at 1 µM [12] of the same compound?
**A.** 100%

**Q.** What about the remaining binding at 1 µM [13] of the same compound?
**A.** 76%

**Q.** What about the remaining binding at 1 µM [14] of the same compound?
**A.** 100%

**Q.** And the remaining binding at 1 µM [15]?
**A.** 100%

**Q.** What about the remaining binding at 1 µM [16] of the same compound?
**A.** 100%

**Q.** What about the “% binding” value [17] of the same compound?
**A.** 100%

**Q.** And the remaining binding at 1 µM [18]?
**A.** 94%

**Q.** And the remaining binding at 1 µM [19]?
**A.** 100%

**Q.** What about the remaining binding at 1 µM [20] of the same compound?
**A.** 93%

**Q.** And the remaining binding at 1 µM [21]?
**A.** 100%

**Q.** What about the remaining binding at 1 µM [22] of the same compound?
**A.** 82%

**Q.** And the “% binding” value [23]?
**A.** 100%

**Q.** And the remaining binding at 1 µM [24]?
**A.** 100%

**Q.** What about the “% binding” value [25] of the same compound?
**A.** 100%

**Q.** What about the remaining binding at 1 µM [26] of the same compound?
**A.** 83%

**Q.** And the remaining binding at 1 µM [27]?
**A.** 100%

**Q.** And the remaining binding at 1 µM [28]?
**A.** 100%

**Q.** And the “% binding” value [29]?
**A.** 70%

**Q.** And the remaining binding at 1 µM [30]?
**A.** 85%

**Q.** What about the remaining binding at 1 µM [31] of the same compound?
**A.** 79%

**Q.** What about the “% binding” value [32] of the same compound?
**A.** 100%

**Q.** And the “% binding” value [33]?
**A.** 99%

**Q.** What about the remaining binding at 1 µM [34] of the same compound?
**A.** 100%
